Results as given in the Deep4Chem optical property database.

Assay: solvent given as SMILES

CC[n+]1c(-c2ccccc2)c2cc(-n3cccc3)ccc2c2ccc(N)cc21
absorption maximum (in O): 462 nm

CCn1c2ccccc2c2cc(-c3cc(-c4ccc5c(c4)c4ccccc4n5CC)nc(C#N)n3)ccc21
absorption maximum (in C1CCOC1): 381 nm | absorption maximum (in CCOC(C)=O): 378 nm | absorption maximum (in CN(C)C=O): 387 nm | absorption maximum (in Cc1ccccc1): 380 nm | absorption maximum (in ClCCl): 381 nm

CCc1c(C)[nH]c(C2=[N+]3C(=Cc4c(C)cc(C)n4[B-]3(F)F)c3ccccc32)c1C
absorption maximum (in C1CCOC1): 615 nm | absorption maximum (in CC#N): 607 nm | absorption maximum (in CCCCCC): 616 nm | absorption maximum (in CO): 610 nm | absorption maximum (in Cc1ccccc1): 623 nm | absorption maximum (in ClCCl): 616 nm

O=Cc1ccc(-c2ccc(O)c(-c3nc4ccccc4s3)c2)o1
absorption maximum (in CCO): 341 nm

COC(=O)c1ccc(/C=C2\C=C(c3ccc(OC)c(OC)c3)NC2=O)cc1
absorption maximum (in C1COCCO1): 454 nm

CC1=CC(C)=[N+]2C1=C(c1ccc(N(C)C)cc1)c1c(C)cc(/C=C/c3ccc(N(C)C)cc3)n1[B-]2(F)F
absorption maximum (in CCOCC): 591 nm

O=C(/C=C(\O)c1ccc(N2c3ccccc3Oc3ccccc32)cc1)c1ccc(N2c3ccccc3Oc3ccccc32)cc1
absorption maximum (in Cc1ccccc1): 441 nm

CC(C)(C)c1ccc2oc3nc4oc5ccc(-n6c7ccc(C(C)(C)C)cc7c7cc(C(C)(C)C)ccc76)cc5c4cc3c2c1
absorption maximum (in ClC(Cl)Cl): 346 nm

CCCCCCOc1cc(N(CC)CC)ccc1/C=C/C(=C(C#N)C#N)c1ccc2c(c1)c1ccccc1n2CC
absorption maximum (in ClCCl): 504 nm

Cc1cc(-c2nc3c4ccccc4c4ccccc4c3n2-c2ccc(C(C)(C)C)cc2)ccc1-c1ccc(-c2c(-c3ccccc3)nc3ccccn23)cc1
absorption maximum (in ClCCl): 364 nm

[NH3+]c1cc([NH3+])cc(-c2nc3ccccc3s2)c1
absorption maximum (in O): 315 nm

c1ccc([B-]2(c3ccccc3)Oc3ccc4ccccc4c3-c3c4ccccc4cc[n+]32)cc1
absorption maximum (in Cc1ccccc1): 427 nm

O=C(N/N=C/c1ccccc1O)c1ccccc1O
absorption maximum (in C1CCOC1): 334 nm | absorption maximum (in CC#N): 335 nm | absorption maximum (in CC(C)=O): 331 nm | absorption maximum (in CCO): 400 nm | absorption maximum (in CN(C)C=O): 412 nm | absorption maximum (in CS(C)=O): 385 nm | absorption maximum (in ClCCl): 335 nm

c1csc(-c2cnc(-c3cccs3)c3nonc23)c1
absorption maximum (in C1CCCCC1): 461 nm | absorption maximum (in CC(C)=O): 461 nm | absorption maximum (in CCCCCC): 458 nm | absorption maximum (in CCCO): 466 nm | absorption maximum (in CCO): 460 nm | absorption maximum (in CCOCC): 462 nm | absorption maximum (in CO): 460 nm | absorption maximum (in Cc1ccccc1): 465 nm | absorption maximum (in ClC(Cl)(Cl)Cl): 465 nm | absorption maximum (in ClC(Cl)Cl): 464 nm | absorption maximum (in Nc1ccccc1): 474 nm | absorption maximum (in O=[N+]([O-])c1ccccc1): 476 nm | absorption maximum (in OCC(O)CO): 471 nm | absorption maximum (in OCc1ccccc1): 473 nm | absorption maximum (in c1ccc2ncccc2c1): 477 nm | absorption maximum (in c1ccccc1): 465 nm | absorption maximum (in c1ccncc1): 472 nm

c1ccc2c(-c3cc4c(ccc5sc(-c6cccc7ccccc67)cc54)s3)cccc2c1
absorption maximum (in ClCCl): 333 nm

CC1=C(C)C(c2c(C)c(C)c3n2[B-](F)(F)[N+]2=C(C)C(C)=C(C)C2=C3)=[N+]2C1=Cc1c(C)c(C)c(C)n1[B-]2(F)F
absorption maximum (in ClCCl): 562 nm

Cc1ccc2nc(/C=C/c3ccc(N(C)C)cc3)c(-c3ccccc3)nc2c1
absorption maximum (in C1COCCO1): 430 nm | absorption maximum (in CC#N): 433 nm | absorption maximum (in ClCCl): 436 nm

CC1=[N+]2C(=C(c3ccccc3)c3c4c5ccccc5c5ccccc5c4c(C)n3[B-]2(F)F)c2c1c1ccccc1c1ccccc21
absorption maximum (in CCCCCC): 630 nm

Nc1n[n+]([O-])c2ccccc2[n+]1[O-]
absorption maximum (in CC#N): 477 nm | absorption maximum (in O): 457 nm

c1ccc2c(c1)CC1(C2)c2cc(N3c4ccccc4Sc4ccccc43)ccc2-c2ccc(N3c4ccccc4Sc4ccccc43)cc21
absorption maximum (in Cc1ccccc1): 310 nm

CC(C)=CCN1C(=O)c2cccc3c2c(cc2oc(C)nc23)C1=O
absorption maximum (in CCO): 362 nm

CCn1c2ccccc2c2cc(/C=C/c3cc(/C=C/c4ccc5c(c4)c4ccccc4n5CC)nc(SC)n3)ccc21
absorption maximum (in C1CCOC1): 406 nm | absorption maximum (in CCOC(C)=O): 402 nm | absorption maximum (in CN(C)C=O): 413 nm | absorption maximum (in Cc1ccccc1): 405 nm | absorption maximum (in ClCCl): 409 nm

CC(C)(C)OC(=O)NCCCC(=O)OCc1ccc2c3cccc4cccc(c5cccc1c52)c43
absorption maximum (in CCO): 439 nm

CC(C)(C)c1ccc2c(c1)c1ncncc1c1c3ccccc3sc21
absorption maximum (in ClCCl): 377 nm

CCN(CC)c1ccc2c(-c3ccc(S(=O)(=O)[O-])cc3S(=O)(=O)[O-])c3ccc(=[N+](CC)CC)cc-3oc2c1
absorption maximum (in CC#N): 548 nm | absorption maximum (in CCO): 552 nm | absorption maximum (in CN(C)C=O): 552 nm | absorption maximum (in O): 562 nm

C(=C\c1ccc(N(c2ccccc2)c2ccccc2)cc1)/c1ccc(-c2ccc(/C=C/c3ccc(N(c4ccccc4)c4ccccc4)cc3)cc2)cc1
absorption maximum (in ClCCl): 398 nm

O=C1C=C(Nc2ccccc2F)C(=O)c2ccccc21
absorption maximum (in CCCCCC): 442 nm | absorption maximum (in CO): 448 nm

CCCCn1cc(/C=C/c2cc(=O)oc3cc(C)ccc23)c2ccccc21
absorption maximum (in CS(C)=O): 414 nm | absorption maximum (in ClC(Cl)Cl): 398 nm
